The subject of experiment [1] is whole complement. In words: Complement Level Reduction Test (in vivo, capillary tube assay of serum). Also noted: species or system guinea pig. The note with it: 200 mg/kg.
In experiment [2] the test system is late components of human complement (C3-C9). As to the kind of experiment: Test, Code 035 (C3-C9 inhibitor), lysis of EAC 142. In kind it is biochemical. The note with it: two-fold serial dilution assay; higher well number indicates higher activity. From the text: An active inhibitor protects C2 from C1 and C4; (ii) Test, Code 035 (C3-C9 inhibitor) - This test determines the ability of the late components of human complement (C3-C9) to lyse EAC 142 in the presence of appropriate dilutions of the test compound. An active inhibitor protects EAC 142 from lysis by human C3-C9; (iii) Test, Code 036 (C-Shunt inhibitor) - In this test human erythrocytes rendered fragile are lysed in autologous serum via the shunt pathway activated by cobra venom factor in the presence of appropriate dilutions of the test compound. Inhibition of the shunt pathway results in failure of lysis; (iv) Forssman Vasculitis Test - Here, the well known complement dependent lesion, Forssman Vasculitis, is produced in guinea pigs by intradermal injection of rabbit anti-Forssman antiserum. […]

Where a name gives a salt, the structure may show the parent alone.

As for `O=S(=O)(O)c1cc(NC(=S)Nc2ccc(Oc3ccc(NC(=S)Nc4cc(S(=O)(=O)O)cc5cc(S(=O)(=O)O)cc(S(=O)(=O)O)c45)c(NC(=S)Nc4cc(S(=O)(=O)O)cc5cc(S(=O)(=O)O)cc(S(=O)(=O)O)c45)c3)cc2NC(=S)Nc2cc(S(=O)(=O)O)cc3cc(S(=O)(=O)O)cc(S(=O)(=O)O)c23)c2c(S(=O)(=O)O)cc(S(=O)(=O)O)cc2c1` [8,8',8",8'"-{Oxybis[4,1,2-phenylbis(2-thioureylene)]}-tetra-1,3,6-naphthalenetrisulfonic acid dodecasodium salt], the “In Vivo Activity (Guinea Pig) % Inhibition” value in experiment [1] (Intraperitoneal, 30 minutes) is -82%; in experiment [1] (Intraperitoneal, 60 minutes), -88%; in experiment [1] (Intraperitoneal, 120 minutes), -94%; in experiment [1] (Intravenous, 2 minutes), -98%; in experiment [1] (Intravenous, 30 minutes), -95%; in experiment [1] (Intravenous, 120 minutes), -91%. For the same compound, in experiment [2], the “C-Late 035 Wells” value was “+2 Wells”.

Values taken from patent publication US4096174A, “Anionic naphthalene thioureido-diphenyloxides” (American Cyanamid Company, priority 1977, dated 1978).
